Laboratory results as given in patent US20200216493A1, “ANTIMICROBIAL PEPTIDES” (FERRING B.V., priority 2016, published 2020).
Converted amounts (≈) assume the structure as drawn.

Columns and labels:
S. pyogenes (2 isolates) = format: cell-based, Streptococcus pyogenes; details: 20 h
Description: (§1) The broth microdilution susceptibility assay followed the procedure described by the Clinical and Laboratory Standards Institute (CLSI) in CLSI document M7-A10.
(§2) The following bacteria isolates were tested:
(§3) S.aureus, S.epidermidis, E.faecalis, and E.faecium colonies were grown on TSA (Tryptone Soya Agar; cat.N. P05012A -OXOID) S.pneumoniae and S.pyogenes colonies were grown on TSASB ((TSA) Agar +5% Sheep Blood; cat.N. PB5012A -OXOID). An inoculum was prepared by making a direct saline suspension of isolated colonies selected from an 18 to 24 hours agar plate incubated at 35±2 ° C. in ambient air. The suspension was adjusted to achieve a turbidity equivalent to a 0.5 McFarland turbidity standard (1 to 2 ×10^8 Colony Forming Units (CFU)) and diluted 200 fold within 15 minutes in broth. (S.aureus, S.epidermidis, E.faecalis, and E.faecium were diluted in CAMHB: Mueller Hinton Broth 2, Cation-Adjusted (cat. N. 90922 Fluka); S.pneumoniae and S.pyogenes were diluted in CAMHB +2.5% lysed horse blood. All broth contained 0.002% polysorbate 80.
(§4) 96-well plates were prepared containing 1 μL of the test compound (at 100× desired test concentration in 100% DMSO); compounds were tested at 8 final concentrations, i.e. 16 μg/mL, 8 μg/mL, 4 μg/mL, 2 μg/mL, 1 μg/mL, 0.5 μg/mL, 0.25 μg/mL, and 0.125 μg/mL. 100 μL of the broth dilution was dispensed in each well plate to have a final bacterial concentration in plate of ˜5×10^5 CFU/mL. The plates were incubated at 35±2° C. in ambient air for 20 hours.

E.coli = format: cell-based, Escherichia coli; details: for MIC ratio Coli/Staph: ratio of E. coli MIC to S. aureus MIC
Description: (§5) This assay was used to determine the minimum concentration of a test compound (i.e., an antimicrobial peptide described herein) able to inhibit the growth of a bacterial strain of interest. This is a standard method for measuring and comparing the potency of peptide-based antibacterial agents (Steinberg et al., Antimicrobial Agents and Chemotherapy 1997, 41 (8) 1738 - 1742 and Wiegand et al., Nature Protocols 2008, 3, 163-175).
(§6) The MIC is reported in units of μg/mL.
(§7) Bacterial cultures were grown by inoculating Mueller-Hinton Broth (MHB) with 3 or 4 representative colony (typical size, color, and shape) from a bacterial strain grown on a LB agar plate. Inoculated liquid cultures were grown at 37° C. with moderate shaking (200-250 rpm) until bacteria produced a visibly turbid suspension. Bacterial inoculum was approximated by measuring the optical density at 600 nm (0D600) of the bacterial culture against a sterile MHB blank. Typically, OD600=0.10 corresponds to ˜1×10^8 cfu/mL for S.aureus and OD600 =0.15 corresponds to ˜1×10^8 cfu/mL for E.coli.
(§8) Test compounds were prepared as stock solutions in vehicle at a concentration 10 times the highest concentration to be tested for antibacterial activity (usually 320 μg/mL stock solutions). 2x serial dilutions in vehicle (at 10× the final test concentrations) of the test compounds were prepared from the test compound stock solutions in a non-binding 96 well plate.
(§9) In a sterile clear flat bottom 96 well plate, 15 μL of each test compound dilution was added to 135 μL of ˜5×10^5 cfu/mL bacterial culture. Each concentration was tested in duplicate. Each experiment contained positive control wells for bacterial growth (i.e., no test compound added to bacteria) and sterility controls wells (i.e., sterile MHB and no test compounds added). 96 well plates containing bacterial cultures and test compounds were incubated at 37° C. for 16-20 hours with shaking at 200 rpm.
(§10) After incubation, the MIC of each test compound was determined by measuring the OD600 of each well using a plate reader. Wells with OD600 >0.08 were considered to have bacterial growth and wells with OD600<0.08 were considered to have no bacterial growth. The lowest concentration of test agent able to inhibit bacterial growth (0D600<0.08 after 16-20 hours) was defined as the MIC.

in vitro = format: cell-based; details: human, HepG2 cells
Description: Compounds were tested for cytotoxicity to a mammalian cell line HepG2 (Human hepatocyte carcinoma from ECACC (85011430)). Hep G2 cells were seeded into 96-well plates, 7500 cells/well in 100 μl medium (Minimum Essential Medium (Gibco 21090) supplemented with 2 mM L-Glutamine, 1% non-essential amino acids and 10% fetal bovine serum) and incubated for 20 hours at 37° C., 5% CO2. 100 μL of fresh medium containing a test compound or DMSO (for control) at 2× final concentration were added and incubated for 48 hours at 37° C., 5% CO2. The final concentration of DMSO in plate was 1%. At the end of this incubation, 20 μl MTT (Thiazolyl Blue Tetrazolium Bromide) solution 5 mg/ml in H2O (0.5 mg/ml final in well) was added to all wells. Cells were incubated with MTT for 4 hours at 37° C., 5% CO2. After incubation, medium containing MTT was removed; 200 μl of DMSO was added in each well and plates were put on a shaker for 5 minutes. Absorbance was read on a SpectraMax plate reader at 570 nm. Specific absorbance (Specific A570) was calculated by subtracting the mean absorbance values of the blank wells (no HepG2 cells) from each well. Control values were determined from wells containing cells and treated with medium+1% DMSO only (no test compound). % viability was calculated as:
(Specific A570test compound/Specific A570control)×100.

E. faecalis (5 isolates) = format: cell-based, Enterococcus faecalis; details: 20 h
Description: as §1, §2, §3, §4

[1] = tested on: S. pneumoniae (8 isolates); format: cell-based, Streptococcus pneumonia; details: 20 h
Description: as §1, §2, §3, §4

S. aureus (14 isolates) = format: cell-based, Staphylococcus aureus; details: 20 h
Description: as §1, §2, §3, §4

S.aureus = format: cell-based, Staphylococcus aureus
Description: as §5, §6, §7, §8, §9, §10

E. faecium (3 isolates) = format: cell-based, Enterococcus faecium; details: 20 h
Description: as §1, §2, §3, §4

[2] = tested on: S. epidermidis (5 isolates); format: cell-based, Staphylococcus epidermidis; details: 20 h
Description: as §1, §2, §3, §4

| SMILES | MIC C. difficile (C. difficile) | S. pyogenes (2) MIC90 (S. pyogenes (2 isolates)) | MIC E. coli (E.coli) | MIC ratio Coli/Staph (E.coli) | viability at 48 h, 100 µM (in vitro) | E. faecalis (5) MIC90 (E. faecalis (5 isolates)) | S. pneumoniae (8) MIC90 [1] | S. Aureus (14) MIC90 (S. aureus (14 isolates)) | MIC S. aureus (S.aureus) | MIC B. fragilis (B. fragilis) | E. faecium (3) MIC90 (E. faecium (3 isolates)) | S. epidermidis (MIC90) (5) [2] |
| --- | --- | --- | --- | --- | --- | --- | --- | --- | --- | --- | --- | --- |
| CC[C@H](C)[C@H](NC(=O)[C@@H](Cc1ccccc1)NC)C(=O)N[C@@H](CO)C(=O)N[C@H](CCC(N)=O)C(=O)N[C@@H](C(=O)N[C@H](C(=O)N[C@@H](CO)C(=O)N[C@H]1C(=O)N[C@@H](C)C(=O)N[C@@H](CCCCNCc2ccccc2)C(=O)N[C@@H]([C@@H](C)CC)C(=O)O[C@H]1C)[C@@H](C)CC)[C@@H](C)CC [Compound 71, H-D-MePhe-Ile-Ser-D-Gln-D-aIle-Ile-Ser-c(D-Thr-Ala-Lys(Bn)-Ile)] | 0.03 to 0.06 µg/mL | ≤0.12 µg/mL | >16 µg/mL | >530 | 92% | 0.5 µg/mL | ≤0.12 µg/mL | ≤0.12 µg/mL | 0.03 to 0.06 µg/mL | >32 µg/mL | 0.5 µg/mL | ≤0.12 µg/mL |
| CC[C@H](C)[C@H](NC(=O)[C@@H](Cc1ccccc1)NC)C(=O)N[C@@H](CO)C(=O)N[C@H](CCC(N)=O)C(=O)N[C@@H](C(=O)N[C@H](C(=O)N[C@@H](CO)C(=O)N[C@H]1C(=O)N[C@@H](C)C(=O)N[C@@H](Cc2ccc(NC(=N)N)cc2)C(=O)N[C@@H]([C@@H](C)CC)C(=O)O[C@H]1C)[C@@H](C)CC)[C@@H](C)CC [Compound 72, H-D-MePhe-Ile-Ser-D-Gln-D-aIle-Ile-Ser-c(D-Thr-Ala-Phe(4-guanidino)-Ile)] | 0.25 to 0.5 µg/mL | ≤0.12 µg/mL | >16 µg/mL | >128 | 115% | 0.5 µg/mL | ≤0.12 µg/mL | 0.25 µg/mL | 0.12 to 0.25 µg/mL | >32 µg/mL | 0.5 µg/mL | ≤0.12 µg/mL |
| CC[C@H](C)[C@H](NC(=O)[C@@H](Cc1ccc(OC)cc1)NC)C(=O)N[C@@H](CO)C(=O)N[C@H](CCC(N)=O)C(=O)N[C@@H](C(=O)N[C@H](C(=O)N[C@@H](CO)C(=O)N[C@H]1C(=O)N[C@@H](C)C(=O)N[C@@H](CCCCNC(=N)N)C(=O)N[C@@H]([C@@H](C)CC)C(=O)O[C@H]1C)[C@@H](C)CC)[C@@H](C)CC [Compound 74, H-D-MeTyr(Me)-Ile-Ser-D-Gln-D-aIle-Ile-Ser-c(D-Thr-Ala-Har-Ile)] | 0.06 to 0.12 µg/mL | ≤0.12 µg/mL | >16 µg/mL | >530 | 136% | 1 µg/mL | ≤0.12 µg/mL | ≤0.12 µg/mL | 0.06 µg/mL (≈ 0.0466 µM) | >32 µg/mL | 0.5 µg/mL | ≤0.12 µg/mL |
| CC[C@H](C)[C@H](NC(=O)[C@@H](Cc1ccc2ccccc2c1)NC)C(=O)N[C@@H](CO)C(=O)N[C@H](CCC(N)=O)C(=O)N[C@@H](C(=O)N[C@H](C(=O)N[C@@H](CO)C(=O)N[C@H]1C(=O)N[C@@H](C)C(=O)N[C@@H](CCCCNC(=N)N)C(=O)N[C@@H]([C@@H](C)CC)C(=O)O[C@H]1C)[C@@H](C)CC)[C@@H](C)CC [Compound 75, H-D-Me2Nal-Ile-Ser-D-Gln-D-aIle-Ile-Ser-c(D-Thr-Ala-Har-Ile)] | 0.015 to 0.03 µg/mL | ≤0.12 µg/mL | >16 µg/mL | >530 | 119% | ≤0.12 µg/mL | ≤0.12 µg/mL | ≤0.12 µg/mL | 0.06 µg/mL (≈ 0.0459 µM) | >32 µg/mL | ≤0.12 µg/mL | ≤0.12 µg/mL |
